Here are results for 39 compounds from patent US9266832B2, “Compounds for the treatment of neurodegenerative diseases” (Katholieke Universiteit Levun, priority 2010, dated 2016).

In the assay the test system is M17-TAU P301L cells. The experiment in a line: Tau-induced toxicity experiment: LDH leakage of retinoic acid incubated M17-TAU P301L cells. Type of assay: cell-based. The following applies: Homo sapiens, Neuroblastoma cell, 168 h; reduction of LDH activity of retinoic acid incubated M17-TAU P301L neuroblastoma cells, 7 days. The source says: A TAU expression plasmid was constructed by sub-cloning the cDNA of human TAU-P301L (encoding for TAU with proline 301 substituted by a leucine residue) into mammalian expression vector pcDNA3.1 resulting in plasmid pcDNA3.1-TAU P301L. Plasmids pcDNA3.1 and pcDNA3.1-TAU P301L were transfected to human neuroblastoma cells ([…]; ATCC No. CRL-2267) and independent clonal lines with the plasmids stably integrated into the genome were selected. […] Expression of the TAU P301L genes in the cell lines was confirmed by Western analysis.
In degenerated or dead cells lactate dehydrogenase (LDH) is leaked out of the cells into the extracellular environment due to a loss of plasma-membrane integrity. This principle was used to determine cytotoxicity by quantifying the level of leaked LDH into the growth medium.
The detailed method for determining TAU cytotoxicity was as follows: From appropriate precultures of M17-3.1 and M17-TAU(P301L) cells were seeded at 2500 cells/cm2 in Optimem Reduced Serum without phenol red (Gibco, Cat. 31985-047) supplemented with 1% fetal calf serum, 1 mM sodium pyruvate, 1× non-essential amino acids, 500 μg/ml G418 0.5× antibiotic/antimycotic. After 3 h of incubation at 37° C./5% CO2 1 volume of Optimem Reduced Serum (same as described above; except without fetal calf serum) supplemented with 2.5 μM retinoic acid (RA) was added. The cells were further incubated for 7 days. Subsequently, LDH activity was determined using Promega Cytotox 96 Non-Radioactive cytotoxicity assay, (Cat. G1780) according the supplier's instructions.
The M17-TAU P301L cell line made it possible to assess the ability of novel compounds to counteract TAU cytotoxicity. […] These measurements were used to calculate EC50 values of table 2.

Molecules are shown by their SMILES.

What is called EC50 is the concentration needed to bring the measured effect to its halfway point. A lower EC50 goes with higher potency in that assay. With `O=C(NCCc1c[nH]c2ccc(Cl)cc12)c1ccc(Cc2cccc(Cl)c2)cc1` [Cpd046, N-(2-(5-chloro-1H-indol-3-yl)ethyl)-4-(3-chlorobenzyl)benzamide], the EC50 was 0.007 µM. For `O=C(NCCc1c[nH]c2ccc(Cl)cc12)c1ccc(Cc2cccc(F)c2)cc1` [Cpd048, N-(2-(5-chloro-1H-indol-3-yl)ethyl)-4-(3-fluorobenzyl)benzamide], the EC50 was 0.013 µM. With `CN(c1ccccc1)c1cccc(C(=O)NCCc2c[nH]c3ccc(Cl)cc23)c1` [Cpd097, N-(2-(5-chloro-1H-indol-3-yl)ethyl)-3-(methyl(phenyl)amino)benzamide] the figure was 0.27 µM; with `O=C(NCCc1c[nH]c2ccc(Cl)cc12)c1ccc(Cc2cccc(F)c2)c(F)c1` [Cpd100, N-(2-(5-chloro-1H-indol-3-yl)ethyl)-3-fluoro-4-(3-fluorobenzyl)benzamide], 0.044 µM; with `O=C(NCCc1c[nH]c2ccc(N3CCOCC3)cc12)c1ccc(Cc2cccc(F)c2)cc1` [Cpd116, 4-(3-fluorobenzyl)-N-(2-(5-morpholino-1H-indol-3-yl)ethyl)benzamide], 0.166 µM. With `O=C(NCCc1c[nH]c2ccc(Cl)cc12)c1ccc(Cc2cccc(C(F)(F)F)c2)cc1` [Cpd042, N-(2-(5-chloro-1H-indol-3-yl)ethyl)-4-(3-(trifluoromethyl)benzyl)benzamide] the figure was 0.031 µM. Then `COc1cccc(Cc2ccc(C(=O)NCCc3c[nH]c4ccc(Cl)cc34)cc2)c1F` [Cpd068, N-(2-(5-chloro-1H-indol-3-yl)ethyl)-4-(2-fluoro-3-methoxybenzyl)benzamide], with 0.148 µM. For `N#Cc1cccc(Nc2cccc(C(=O)NCCc3c[nH]c4ccc(Cl)cc34)c2)c1` [Cpd064, N-(2-(5-chloro-1H-indol-3-yl)ethyl)-3-(3-cyanophenylamino)benzamide], the response was half-maximal at 0.122 µM (EC50). Compound `COc1ccc(Cc2cccc(C(=O)NCCc3c[nH]c4ccc(Cl)cc34)c2)cc1` [Cpd057, N-(2-(5-chloro-1H-indol-3-yl)ethyl)-3-(4-methoxybenzyl)benzamide] displayed an EC50 of 0.147 µM. Then `O=C(NCCc1c[nH]c2ccc(Cl)cc12)c1ccc(Cc2cccnc2)cc1` [Cpd085, N-(2-(5-chloro-1H-indol-3-yl)ethyl)-4-(pyridin-3-ylmethyl)benzamide], with 0.117 µM. With `Cn1cc(CCNC(=O)c2ccc(Cc3cccc(F)c3)cc2)c2cc(Cl)ccc21` [Cpd091, N-(2-(5-chloro-1-methyl-1H-indol-3-yl)ethyl)-4-(3-fluorobenzyl)benzamide] the figure was 0.581 µM; with `N#Cc1cccc(Cc2ccc(C(=O)NCCc3c[nH]c4ccc(Cl)cc34)cc2)c1` [Cpd032, N-(2-(5-chloro-1H-indol-3-yl)ethyl)-4-(3-cyanobenzyl)benzamide], 0.014 µM; with `O=C(NCCc1c[nH]c2ccc(F)cc12)c1cccc(Cc2cccc(F)c2)c1` [Cpd082, N-(2-(5-fluoro-1H-indol-3-yl)ethyl)-3-(3-fluorobenzyl)benzamide], 0.112 µM. Turning to `O=C(NCCc1c[nH]c2ccc(Cl)cc12)c1ccc(Cc2cccc(F)c2F)cc1` [Cpd103, N-(2-(5-chloro-1H-indol-3-yl)ethyl)-4-(2,3-difluorobenzyl)benzamide], the concentration giving a half-maximal response (EC50) was found to be 0.139 µM. With `O=C(NCCc1c[nH]c2ccc(Cl)cc12)c1ccc(Cc2ccccc2C(F)(F)F)cc1` [Cpd041, N-(2-(5-chloro-1H-indol-3-yl)ethyl)-4-(2-(trifluoromethyl)benzyl)benzamide] the figure was 0.08 µM.

Compound `O=C(NCCc1c[nH]c2ccc(Cl)cc12)c1cccc(Cc2ccsc2)c1` [Cpd076, N-(2-(5-chloro-1H-indol-3-yl)ethyl)-3-(thiophen-3-ylmethyl)benzamide] came in with an EC50 of 0.029 µM. Then `O=C(NCCc1c[nH]c2ccc(Cl)cc12)c1cccc(Oc2ccccc2)c1` [Cpd095, N-(2-(5-chloro-1H-indol-3-yl)ethyl)-3-phenoxybenzamide], with 0.241 µM; and `COc1ccccc1Cc1ccc(C(=O)NCCc2c[nH]c3ccc(Cl)cc23)cc1` [Cpd029, N-(2-(5-chloro-1H-indol-3-yl)ethyl)-4-(2-methoxybenzyl)benzamide], with 0.084 µM; and `O=C(NCCc1c[nH]c2ccc(Cl)cc12)c1ccc(Cc2ccco2)cc1` [Cpd087, N-(2-(5-chloro-1H-indol-3-yl)ethyl)-4-(furan-2-ylmethyl)benzamide], with 0.133 µM.

In the case of `N#Cc1ccc2[nH]cc(CCNC(=O)c3ccc(Cc4cccc(F)c4)cc3)c2c1` [Cpd115, N-(2-(5-cyano-1H-indol-3-yl)ethyl)-4-(3-fluorobenzyl)benzamide], the EC50 was determined as 0.075 µM.

As for `COc1ccccc1Cc1cccc(C(=O)NCCc2c[nH]c3ccc(Cl)cc23)c1` [Cpd030, N-(2-(5-chloro-1H-indol-3-yl)ethyl)-3-(2-methoxybenzyl)benzamide], the EC50 was determined as 0.096 µM. With `O=C(NCCc1c[nH]c2ccc(Cl)cc12)c1ccc(Cc2ccsc2)cc1` [Cpd080, N-(2-(5-chloro-1H-indol-3-yl)ethyl)-4-(thiophen-3-ylmethyl)benzamide] the figure was 0.018 µM. With `Cc1cccc(C)c1Cc1ccc(C(=O)NCCc2c[nH]c3ccc(Cl)cc23)cc1` [Cpd062, N-(2-(5-chloro-1H-indol-3-yl)ethyl)-4-(2,6-dimethylbenzyl)benzamide] the figure was 0.398 µM.

Compound `O=C(NCCc1c[nH]c2ccc(Cl)cc12)c1cccc(Cc2ccc(F)cc2)c1` [Cpd052, N-(2-(5-chloro-1H-indol-3-yl)ethyl)-3-(4-fluorobenzyl)benzamide] came in with a 50% effective concentration (EC50) of 0.02 µM. With `O=C(NCCc1c[nH]c2ccc(Cl)cc12)c1cccc(Cc2cccc(F)c2)c1` [Cpd053, N-(2-(5-chloro-1H-indol-3-yl)ethyl)-3-(3-fluorobenzyl)benzamide] the figure was 0.017 µM; with `COc1cccc(Cc2cccc(C(=O)NCCc3c[nH]c4ccc(Cl)cc34)c2)c1F` [Cpd066, N-(2-(5-chloro-1H-indol-3-yl)ethyl)-3-(2-fluoro-3-methoxybenzyl)benzamide], 0.386 µM; with `O=C(NCCc1c[nH]c2ccc(Cl)cc12)c1cccc(CNCc2ccccc2)c1` [Cpd023, 3-((benzylamino)methyl)-N-(2-(5-chloro-1H-indol-3-yl)ethyl)benzamide], 0.094 µM. `O=C(NCCc1c[nH]c2ccc(Cl)cc12)c1ccc(Cc2ccccc2)cc1` [Cpd015, 4-benzyl-N-(2-(5-chloro-1H-indol-3-yl)ethyl)benzamide]: the EC50 is 0.154 µM. `O=C(NCCc1c[nH]c2ccc(Cl)cc12)c1ccc(Cc2cc(F)ccc2F)cc1` [Cpd102, N-(2-(5-chloro-1H-indol-3-yl)ethyl)-4-(2,5-difluorobenzyl)benzamide] came in with an EC50 of 0.049 µM. For the compound `O=C(NCCc1c[nH]c2ccc(Cl)cc12)c1cccc(Cc2ccco2)c1` [Cpd077, N-(2-(5-chloro-1H-indol-3-yl)ethyl)-3-(furan-2-ylmethyl)benzamide], a half-maximal response (EC50) required 0.017 µM. With `CN(c1ccc(C(=O)NCCc2c[nH]c3ccc(Cl)cc23)cc1)c1cccc(F)c1` [Cpd104, N-(2-(5-chloro-1H-indol-3-yl)ethyl)-4-((3-fluorophenyl)(methyl)amino)benzamide] the figure was 0.264 µM; with `O=C(NCCc1c[nH]c2ccc(Cl)cc12)c1ccc(Oc2cccc(F)c2)cc1` [Cpd105, N-(2-(5-chloro-1H-indol-3-yl)ethyl)-4-(3-fluorophenoxy)benzamide], 0.112 µM; with `O=C(NCCc1c[nH]c2ccc(Cl)cc12)c1ccc(Cc2ccccc2F)cc1` [Cpd049, N-(2-(5-chloro-1H-indol-3-yl)ethyl)-4-(2-fluorobenzyl)benzamide], 0.031 µM. With `Cc1cccc(Cc2cccc(C(=O)NCCc3c[nH]c4ccc(Cl)cc34)c2)c1` [Cpd035, N-(2-(5-chloro-1H-indol-3-yl)ethyl)-3-(3-methylbenzyl)benzamide] the figure was 0.06 µM; with `O=C(NCCc1c[nH]c2ccc(Cl)cc12)c1cccc(Nc2ccccc2)c1` [Cpd094, N-(2-(5-chloro-1H-indol-3-yl)ethyl)-3-(phenylamino)benzamide], 0.161 µM; with `Cc1cccc(Oc2cccc(C(=O)NCCc3c[nH]c4ccc(Cl)cc34)c2)c1` [Cpd090, N-(2-(5-chloro-1H-indol-3-yl)ethyl)-3-(m-tolyloxy)benzamide], 0.091 µM. With `CN(c1ccccc1)c1ccc(C(=O)NCCc2c[nH]c3ccc(Cl)cc23)cc1` [Cpd096, N-(2-(5-chloro-1H-indol-3-yl)ethyl)-4-(methyl(phenyl)amino)benzamide] the figure was 0.47 µM; with `O=C(NCCc1c[nH]c2ccc(Cl)cc12)c1cccc(Cc2cccc(C(F)(F)F)c2)c1` [Cpd044, N-(2-(5-chloro-1H-indol-3-yl)ethyl)-3-(3-(trifluoromethyl)benzyl)benzamide], 0.055 µM; with `O=C(NCCc1c[nH]c2ccc(Cl)cc12)c1ccc(Cc2cccc(F)c2)cc1F` [Cpd099, N-(2-(5-chloro-1H-indol-3-yl)ethyl)-2-fluoro-4-(3-fluorobenzyl)benzamide], 0.027 µM.
